# Tests used:
# [1] = molecular target: T1, human TRPV1 (Homo sapiens, UniProt Q8NER1); assay: Functional assay: block of capsaicin-induced Ca2+ influx, human assay (hTRPV1/HEK293, FLIPR); format: cell-based; conditions: hTRPV1/HEK293 cells, 150 nM capsaicin challenge, Fluo-3 fluorescence; mean; > value = solubility limit in assay medium
# T1 construct: expressed in transfected cells; host or cells: HEK293 (hTRPV1/HEK293), zeocin selection
# Experimental: (§1) Functional assay: block of capsaicin-induced Ca^2+ influx
# (§2) HEK293 cells were transfected with human TRPV1 cloned in pcDNA3.1zeo(+) using the Effectene non-liposomal lipid based transfection kit (Qiagen) (hTRPV1/HEK293). hTRPV1/HEK293 cells were routinely grown as monolayers under selection in zeocin (200 μg/mL; Invitrogen) in Dulbecco's Modified Eagle Medium (DMEM, Gibco BRL) supplemented with 10% fetal bovine serum, and penicillin/streptomycin (50 units/mL) in 5% CO2 at 37° C. Cells were passaged frequently, every 3-5 days, to avoid overgrowth, depletion of essential medium components, or acidic medium exposure. Cells were passaged using a brief wash in 0.05% trypsin with 1 mM EDTA, followed by dissociation in divalent-free phosphate-buffered saline (Hyclone #SH30028.02). […] The assay buffer was composed of 130 mM NaCl, 2 mM KCl, 2 mM MgCl2, 10 mM HEPES, 5 mM glucose, and either 2 mM or 20 μM CaCl2. On the day of the experiment, the culture medium was replaced with 2 mM calcium assay buffer using an automated plate washer (ELx405; Biotek, VT). […] After loading the cells, the dye solution was replaced with 50 μL/well of 20 μM calcium assay buffer using the ELx405 plate washer. Test compounds (50 μL/well) were added to the plate and incubated for 30 min. […] The IC50 values were determined. […] The contents of the wells were mixed 3 times (40 μL mix volume) immediately after the additions were made. Concentration-dependence of block was determined by exposing each well of cells in duplicate rows of a 96-well plate to a serial dilution of test compound. The concentration series usually started at 10 μM with a three-fold serial decrement in concentration. The magnitude of the capsaicin response was determined by measuring the change in fluo3 fluorescence before and 100 seconds after the addition of the agonist. Data were analyzed using a non-linear regression program (Origin; OriginLab, MA).
# (§3) IC50 values shown are the average (mean) of the results obtained. […] Compounds were tested in either the free base or trifluoroacetic acid salt form.
# [2] = molecular target: T2, rat TRPV1 (Rattus norvegicus, UniProt O35433); assay: Functional assay: block of capsaicin-induced Ca2+ influx, rat assay (rTRPV1/HEK293, FLIPR); format: cell-based; conditions: rTRPV1/HEK293 cells, capsaicin challenge, Fluo-3 fluorescence; mean; > value = solubility limit in assay medium
# T2 construct: expressed in transfected cells; host or cells: HEK293 (rTRPV1/HEK293), geneticin selection
# Experimental: as §1, §2
# This assay was performed similarly to the human assay described above, but using HEK293 cells transfected with rat TRPV1 (rTRPV1/HEK293).
# as §3
# T2 sequence (O35433 whole entry): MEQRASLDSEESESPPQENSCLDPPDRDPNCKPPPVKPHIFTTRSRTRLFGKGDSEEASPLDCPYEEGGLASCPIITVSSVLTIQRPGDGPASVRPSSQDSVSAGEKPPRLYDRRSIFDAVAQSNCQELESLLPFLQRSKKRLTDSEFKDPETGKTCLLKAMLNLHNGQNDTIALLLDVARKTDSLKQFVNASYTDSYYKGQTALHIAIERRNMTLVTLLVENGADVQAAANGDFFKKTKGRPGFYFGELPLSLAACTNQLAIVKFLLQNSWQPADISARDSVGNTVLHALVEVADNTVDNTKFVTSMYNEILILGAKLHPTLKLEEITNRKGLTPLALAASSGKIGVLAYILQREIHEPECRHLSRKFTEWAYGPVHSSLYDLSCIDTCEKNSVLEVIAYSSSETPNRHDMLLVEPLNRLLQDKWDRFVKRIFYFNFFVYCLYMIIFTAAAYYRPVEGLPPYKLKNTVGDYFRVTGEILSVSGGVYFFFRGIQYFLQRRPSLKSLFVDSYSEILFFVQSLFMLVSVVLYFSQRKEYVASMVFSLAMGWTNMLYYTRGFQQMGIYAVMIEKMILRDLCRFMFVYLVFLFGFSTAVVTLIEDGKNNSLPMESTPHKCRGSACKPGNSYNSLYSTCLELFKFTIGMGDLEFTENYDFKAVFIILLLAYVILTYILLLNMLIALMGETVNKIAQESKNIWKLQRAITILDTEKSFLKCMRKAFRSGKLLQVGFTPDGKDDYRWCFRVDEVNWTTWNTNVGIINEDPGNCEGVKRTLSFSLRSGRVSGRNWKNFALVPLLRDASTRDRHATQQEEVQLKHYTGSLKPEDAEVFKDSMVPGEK
# T1 sequence (Q8NER1 whole entry): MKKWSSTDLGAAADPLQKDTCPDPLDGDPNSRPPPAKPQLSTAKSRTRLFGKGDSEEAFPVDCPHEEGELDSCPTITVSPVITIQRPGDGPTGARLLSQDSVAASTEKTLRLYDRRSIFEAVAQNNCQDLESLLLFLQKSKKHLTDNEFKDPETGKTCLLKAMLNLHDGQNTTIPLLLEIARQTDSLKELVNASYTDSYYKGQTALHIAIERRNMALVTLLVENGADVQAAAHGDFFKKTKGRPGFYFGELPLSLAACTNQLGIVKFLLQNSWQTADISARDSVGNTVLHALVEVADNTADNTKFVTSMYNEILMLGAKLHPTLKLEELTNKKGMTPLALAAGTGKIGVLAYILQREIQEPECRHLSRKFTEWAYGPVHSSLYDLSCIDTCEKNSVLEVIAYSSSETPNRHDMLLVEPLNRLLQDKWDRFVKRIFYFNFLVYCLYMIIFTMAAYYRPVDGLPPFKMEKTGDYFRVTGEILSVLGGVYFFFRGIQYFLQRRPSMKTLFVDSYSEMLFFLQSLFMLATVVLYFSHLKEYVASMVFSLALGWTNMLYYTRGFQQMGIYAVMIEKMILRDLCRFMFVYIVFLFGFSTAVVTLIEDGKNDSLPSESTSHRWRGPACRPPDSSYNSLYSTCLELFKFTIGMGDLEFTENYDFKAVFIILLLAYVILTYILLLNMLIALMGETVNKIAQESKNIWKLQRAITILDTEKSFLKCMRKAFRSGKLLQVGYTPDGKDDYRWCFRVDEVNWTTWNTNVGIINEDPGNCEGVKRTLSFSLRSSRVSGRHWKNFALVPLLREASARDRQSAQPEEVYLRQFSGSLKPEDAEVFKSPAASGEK
SMILES,IC50 [1],IC50 [2]
"Cc1nc(NC2CCC(C(C)(C)C)CC2)c2nc(Nc3c(Cl)cccc3Cl)sc2n1 (mixture of isomers) [Example 8, N^7-(4-tert-Butyl-cyclohexyl)-N^2-(2,6-dichloro-phenyl)-5-methyl-thiazolo[5,4-d]pyrimidine-2,7-diamine]",1090 nM,70 nM
"Cc1nc(NC2CCC(C(C)(C)C)CC2)c2nc(Nc3c(C)cccc3C)sc2n1 (mixture of isomers) [Example 249, N^7-(4-tert-Butyl-cyclohexyl)-N^2-(2,6-dimethyl-phenyl)-5-methyl-thiazolo[5,4-d]pyrimidine-2,7-diamine]",4370 nM,1010 nM
"CC(C)C1CCCN1c1nc(Nc2ccc(C(F)(F)F)cc2)c2nc(Nc3c(Cl)cccc3Cl)sc2n1 (racemic) [Example 89, (racemic)-N^2-(2,6-Dichloro-phenyl)-5-(2-isopropyl-pyrrolidin-1-yl)-N^7-(4-trifluoromethyl-phenyl)-thiazolo[5,4-d]pyrimidine-2,7-diamine]",7 nM,2 nM
"CC1CCCN1c1nc(Nc2ccc(C(F)(F)F)cc2)c2nc(Nc3c(Cl)cccc3Cl)sc2n1 (racemic) [Example 105, (racemic)-N^2-(2,6-Dichloro-phenyl)-5-(2-methyl-pyrrolidin-1-yl)-N^7-(4-trifluoromethyl-phenyl)-thiazolo[5,4-d]pyrimidine-2,7-diamine]",24 nM,17 nM
"CC1CCCN1c1nc(Nc2ccc(S(C)(=O)=O)cc2)c2nc(Nc3c(Cl)cccc3Cl)sc2n1 (racemic) [Example 117, (racemic)-N^2-(2,6-Dichloro-phenyl)-N^7-(4-methanesulfonyl-phenyl)-5-(2-methyl-pyrrolidin-1-yl)-thiazolo[5,4-d]pyrimidine-2,7-diamine]",50 nM,7 nM
"CC(C)C1CCCN1c1nc(Nc2ccc(C(F)(F)F)c(Cl)c2)c2nc(Nc3c(Cl)cccc3Cl)sc2n1 (racemic) [Example 118, (racemic)-N^7-(3-Chloro-4-trifluoromethyl-phenyl)-N^2-(2,6-dichloro-phenyl)-5-(2-isopropyl-pyrrolidin-1-yl)-thiazolo[5,4-d]pyrimidine-2,7-diamine]",56 nM,18 nM
"CC1CCCN1c1nc(Nc2ccc(C(F)(F)F)c(Cl)c2)c2nc(Nc3c(Cl)cccc3Cl)sc2n1 (racemic) [Example 130, (racemic)-N^7-(3-Chloro-4-trifluoromethyl-phenyl)-N^2-(2,6-dichloro-phenyl)-5-(2-methyl-pyrrolidin-1-yl)-thiazolo[5,4-d]pyrimidine-2,7-diamine]",170 nM,87 nM
"CC1CCCCN1c1nc(Nc2ccc(C(F)(F)F)c(Cl)c2)c2nc(Nc3c(Cl)cccc3Cl)sc2n1 (racemic) [Example 136, (racemic)-N^7-(3-Chloro-4-trifluoromethyl-phenyl)-N^2-(2,6-dichloro-phenyl)-5-(2-methyl-piperidin-1-yl)-thiazolo[5,4-d]pyrimidine-2,7-diamine]",205 nM,25 nM
"Cc1cccc(C)c1Nc1nc2c(Nc3ccc(C(C)O)cc3)ncnc2s1 (racemic) [Example 140, (racemic)-1-{4-[2-(2,6-Dimethyl-phenylamino)-thiazolo[5,4-d]pyrimidin-7-ylamino]-phenyl}-ethanol]",324 nM,185 nM
"Cc1nc(Nc2ccc([S+](C)[O-])cc2)c2nc(Nc3c(C)cccc3C)sc2n1 (racemic) [Example 143, (racemic)-N^2-(2,6-Dimethyl-phenyl)-N^7-(4-methanesulfinyl-phenyl)-5-methyl-thiazolo[5,4-d]pyrimidine-2,7-diamine]",423 nM,279 nM
"OCC1CN(c2nc(Nc3ccc(C(F)(F)F)cc3)c3nc(Nc4c(Cl)cccc4Cl)sc3n2)CCO1 (racemic) [Example 146, (racemic)-{4-[2-(2,6-Dichloro-phenylamino)-7-(4-trifluoromethyl-phenylamino)-thiazolo[5,4-d]pyrimidin-5-yl]-morpholin-2-yl}-methanol]",646 nM,319 nM
"Cc1cccc(C)c1Nc1nc2c(Nc3ccc(OC4CCOC4)cc3)ncnc2s1 (racemic) [Example 154, (racemic)-N^2-(2,6-Dimethyl-phenyl)-N^7-[4-(tetrahydro-furan-3-yloxy)-phenyl]-thiazolo[5,4-d]pyrimidine-2,7-diamine]",1520 nM,1860 nM
"OCC1CN(c2nc(Nc3ccc(C(F)(F)F)c(Cl)c3)c3nc(Nc4c(Cl)cccc4Cl)sc3n2)CCO1 (racemic) [Example 155, (racemic)-{4-[7-(3-Chloro-4-trifluoromethyl-phenylamino)-2-(2,6-dichloro-phenylamino)-thiazolo[5,4-d]pyrimidin-5-yl]-morpholin-2-yl}-methanol]",1540 nM,414 nM
"CC(C)C1CCCN1c1nc(Nc2ccc(S(C)(=O)=O)cc2)c2nc(Nc3c(Cl)cccc3Cl)sc2n1 (racemic) [Example 177, (racemic)-N^2-(2,6-Dichloro-phenyl)-5-(2-isopropyl-pyrrolidin-1-yl)-N^7-(4-methanesulfonyl-phenyl)-thiazolo[5,4-d]pyrimidine-2,7-diamine]",21 nM,3 nM
"CC1CCCCN1c1nc(Nc2ccc(S(C)(=O)=O)cc2)c2nc(Nc3c(Cl)cccc3Cl)sc2n1 (racemic) [Example 179, (racemic)-N^2-(2,6-Dichloro-phenyl)-N^7-(4-methanesulfonyl-phenyl)-5-(2-methyl-piperidin-1-yl)-thiazolo[5,4-d]pyrimidine-2,7-diamine]",159 nM,12 nM
"CC(CO)Nc1nc(Nc2ccc(C(F)(F)F)cc2)c2nc(Nc3c(Cl)cccc3Cl)sc2n1 (racemic) [Example 186, (racemic)-2-[2-(2,6-Dichloro-phenylamino)-7-(4-trifluoromethyl-phenylamino)-thiazolo[5,4-d]pyrimidin-5-ylamino]-propan-1-ol]",642 nM,666 nM
"CC1CCCCN1c1nc(Nc2ccc(C(F)(F)F)cc2)c2nc(Nc3c(Cl)cccc3Cl)sc2n1 (racemic) [Example 191, (racemic)-N^2-(2,6-Dichloro-phenyl)-5-(2-methyl-piperidin-1-yl)-N^7-(4-trifluoromethyl-phenyl)-thiazolo[5,4-d]pyrimidine-2,7-diamine]",14 nM,56 nM
"Cc1cccc(C)c1Nc1nc2c(NC3CCC(C(C)(C)C)CC3)ncnc2s1 (single isomer, unassigned) [Example 248, N^7-(4-tert-Butyl-cyclohexyl)-N^2-(2,6-dimethyl-phenyl)-thiazolo[5,4-d]pyrimidine-2,7-diamine]",1100 nM,240 nM
"FC(F)(F)c1ccc(Nc2ncnc3sc(Nc4c(Cl)cccc4Cl)nc23)cc1 [Example 1, N^2-(2,6-Dichloro-phenyl)-N^7-(4-trifluoromethyl-phenyl)-thiazolo[5,4-d]pyrimidine-2,7-diamine]",12 nM,3 nM
"FC(F)(F)c1ccc(Nc2ncnc3sc(Nc4c(Cl)cccc4Cl)nc23)cn1 [Example 2, N^2-(2,6-Dichloro-phenyl)-N^7-(6-trifluoromethyl-pyridin-3-yl)-thiazolo[5,4-d]pyrimidine-2,7-diamine]",14 nM,4 nM
"CC(C)(C)c1ccc(Nc2ncnc3sc(Nc4c(Cl)cccc4Cl)nc23)cc1 [Example 3, N^7-(4-tert-Butyl-phenyl)-N^2-(2,6-dichloro-phenyl)-thiazolo[5,4-d]pyrimidine-2,7-diamine]",14 nM,1 nM
"FC(F)(F)c1ccc(Nc2ncnc3sc(Nc4c(Cl)cccc4Cl)nc23)cc1Cl [Example 4, N^7-(3-Chloro-4-trifluoromethyl-phenyl)-N^2-(2,6-dichloro-phenyl)-thiazolo[5,4-d]pyrimidine-2,7-diamine]",15 nM,8 nM
"Cc1nc(Nc2ccc(C(F)(F)F)cc2)c2nc(Nc3c(Cl)cccc3Cl)sc2n1 [Example 5, N^2-(2,6-Dichloro-phenyl)-5-methyl-N^7-(4-trifluoromethyl-phenyl)-thiazolo[5,4-d]pyrimidine-2,7-diamine]",3 nM,2 nM
"Cc1nc(Nc2ccc(C(F)(F)F)nc2)c2nc(Nc3c(Cl)cccc3Cl)sc2n1 [Example 6, N^2-(2,6-Dichloro-phenyl)-5-methyl-N^7-(6-trifluoromethyl-pyridin-3-yl)-thiazolo[5,4-d]pyrimidine-2,7-diamine]",5 nM,1 nM
